Measured values as given in US20160115540A1, “PRODRUGS AND DRUGS” (Biogen MA Inc., priority 2013, published 2016).
Counter-ions that a name gives are not always drawn.

Tested on: liver
Experiment: Transcriptional profiling on Affymetrix GeneChips, single dose, naïve mice: liver
Assay type: in vivo, C57BL/6 mice
Conditions: liver
Method: Treated mice were sacrificed at 2, 7, or 12 hours. Tissues (liver, spleen, kidney, jejunum, cortex, hippocampus, striatum and whole blood) were collected and analyzed by transcriptional profiling on mouse Affymetrix GeneChips.
Tissues (liver, spleen, kidney, jejunum, cortex, hippocampus, striatum and whole blood) were collected and analyzed by transcriptional profiling on mouse Affymetrix GeneChips.
Animals were exposed to CO2 and whole blood collected via cardiac puncture. Two 100 μl aliquots of whole blood were collected in 1.5 mL microcentrifuge tubes and snap frozen in liquid nitrogen. Peripheral (liver, spleen, kidney and jejunum) and CNS brain (cerebellum, hippocampus, striatum and cortex) tissues were harvested and snap frozen in liquid nitrogen, with special care taken to collect tissues of similar size and from the same location. All samples were stored at −80° C. until RNA extraction was conducted.
For RNA preparation, frozen tissues were placed in 2 mL RNAse-free 96-well blocks with 1.5 mL QIAzol Lysis Reagent (QIAgen) and a 3.2 mm stainless steel bead (BioSpec Products, Bartlesville, Okla.). Tissues were disrupted for four cycles of 45 seconds in a Mini-Beadbeater (Biospec Products). RNA was extracted in chloroform and the aqueous phase was mixed with an equal volume of 70% ethanol. Extracted RNA was applied to RNeasy 96 plates and purified by the spin method according to the manufacturer's protocol (RNeasy 96 Universal Tissue Protocol, QIAgen, Hilden Germany).
Automated sample amplifications and biotin labelings were carried out using the NuGEN Ovation RNA Amplification system V2 (Cat #3100), Ovation WB reagent (Cat #1300) and Encore Biotin module (Cat #4200) (NuGEN Technologies, Inc, San Carlos, Calif.) according to manufacturer's recommendations using an Arrayplex automated liquid handler (Beckman Coulter, Indianapolis, Ind.). Two micrograms of biotin labeled sscDNA probe were hybridized to Affymetrix GeneChip Affymetrix HT_MG-430_PM plate arrays with modified conditions as described in Allaire et al. Washing and staining of the hybridized arrays were completed as described in the GeneChip Expression analysis technical manual for HT plate arrays using the Genechip® Array Station (Affymetrix, Santa Clara, Calif.) with modifications as described in Allaire et al. The processed GeneChip® plate arrays were scanned using GeneTitan scanner (Affymetrix, Santa Clara, Calif.).
Affymetrix scans were subject to quality control (QC) measures. These tests included a visual inspection of the distribution of raw signal intensities and an assessment of RNA degradation, relative log expression (RLE), and normalized unsealed standard error (NUSE). All sample scans that passed these QC metrics were included in the analysis.
All CEL files were subjected to GC-content-based Robust Multi-array Average (GCRMA) normalization (version 2.20.0) (Irizarry R A, et al. Nucleic Acids Res 2003; 31:e15; Li C, et al. Genome Biol 2001; 2:[…]0032). Expression levels were log (base 2) transformed.
All calculations and analyses were carried out using R (version 2.11.1) and Bioconductor computational tools (Gentleman R. Springer Science+Business Media 2005).

[1] = 100 mg/kg, 7 hr, vs matched vehicle controls
[2] = 100 mg/kg, 12 hr, vs matched vehicle controls

Structure (SMILES): COC(=O)/C=C/C(=O)O [MMF, monomethyl fumarate]
- Murine Liver DEGs: Srxn1 (1419942_PM_at) (100 mg/kg, 2 hr, vs matched vehicle controls): 1.68
- Murine Liver DEGs: Akr1b8 (1448894_PM_at) [1]: 1.75
- Murine Liver DEGs: Bmp6 (1450759_PM_at) [1]: 1.65
- Murine Liver DEGs: Cda (1427357_PM_at) [1]: 1.92
- Murine Liver DEGs: Clec4n (1419627_PM_s_at) [1]: 2.40
- Murine Liver DEGs: Erc2 (1434582_PM_at) [1]: −1.95
- Murine Liver DEGs: Fzd8 (1445815_PM_at) [1]: −1.81
- Murine Liver DEGs: G6pdx (1448354_PM_at) [1]: 1.61
- Murine Liver DEGs: Irak3 (1435040_PM_at) [1]: 1.53
- Murine Liver DEGs: Marco (1449498_PM_at) [1]: 2.44
- Murine Liver DEGs: Nqo1 (1423627_PM_at) [1]: 2.20
- Murine Liver DEGs: Pir (1429001_PM_at) [1]: 1.50
- Murine Liver DEGs: Srxn1 (1419942_PM_at) [1]: 1.52
- Murine Liver DEGs: Ablim1 (1453103_PM_at) [2]: −1.51
- Murine Liver DEGs: Atp6v0d2 (1444176_PM_at) [2]: 1.84
- Murine Liver DEGs: Car3 (1460256_PM_at) [2]: −1.57
- Murine Liver DEGs: Ccnf (1443807_PM_x_at) [2]: 1.57
- Murine Liver DEGs: Clmn (1439117_PM_at) [2]: −1.54
- Murine Liver DEGs: Ctla2a (1448471_PM_a_at) [2]: 1.63
- Murine Liver DEGs: Dnajc12 (1417441_PM_at) [2]: 2.53
- Murine Liver DEGs: Fndc3b (1433833_PM_at) [2]: 1.66
- Murine Liver DEGs: Gadd45b (1450971_PM_at) [2]: 1.50
- Murine Liver DEGs: Gm3579 (1431214_PM_at) [2]: 2.74
- Murine Liver DEGs: Hyou1 (1423290_PM_at) [2]: 1.82
- Murine Liver DEGs: Lrrc59 (1416235_PM_at) [2]: 1.65
- Murine Liver DEGs: Nme6 (1448574_PM_at) [2]: 1.57
- Murine Liver DEGs: Ppapdc1b (1428154_PM_s_at) [2]: 1.87
- Murine Liver DEGs: Ppm1k (1441988_PM_at) [2]: −1.56
- Murine Liver DEGs: Prtn3 (1419669_PM_at) [2]: 4.46
- Abcc1 (probe set 1452233_PM_at) differential expression (2 hr): 1.86
- Akr1b8 (probe set 1448894_PM_at) differential expression (2 hr): 2.27
- Ampd3 (probe set 1422573_PM_at) differential expression (2 hr): 1.70
- Caprin1 (probe set 1448348_PM_at) differential expression (2 hr): −1.56
- Clec4d (probe set 1420804_PM_s_at) differential expression (2 hr): 2.05
- Cmah (probe set 1447019_PM_at) differential expression (2 hr): −1.55
- Csnk2a1 (probe set 1419038_PM_a_at) differential expression (2 hr): −1.62
- Figf (probe set 1438953_PM_at) differential expression (2 hr): 2.25
- Fxr1 (probe set 1452247_PM_at) differential expression (2 hr): −1.53
- Gclc (probe set 1424296_PM_at) differential expression (2 hr): 1.72
- Hmox1 (probe set 1448239_PM_at) differential expression (2 hr): 2.41
- Meis2 (probe set 1440091_PM_at) differential expression (2 hr): −1.67
- Mkln1 (probe set 1416734_PM_at) differential expression (2 hr): −1.69
- Pgd (probe set 1436771_PM_x_at) differential expression (2 hr): 1.61
- Ppfibp2 (probe set 1417801_PM_a_at) differential expression (2 hr): 2.55
- Prpf38b (probe set 1455016_PM_at) differential expression (2 hr): −1.53
- Ptprb (probe set 1453908_PM_at) differential expression (2 hr): −1.76
- Ptprg (probe set 1456070_PM_at) differential expression (2 hr): −1.85
- Srxn1 (probe set 1419942_PM_at) differential expression (2 hr): 1.68
- Akr1b8 (probe set 1448894_PM_at) differential expression (7 hr): 1.75
- Bmp6 (probe set 1450759_PM_at) differential expression (7 hr): 1.65
- Cda (probe set 1427357_PM_at) differential expression (7 hr): 1.92
- Clec4n (probe set 1419627_PM_s_at) differential expression (7 hr): 2.40
- Erc2 (probe set 1434582_PM_at) differential expression (7 hr): −1.95
- Fzd8 (probe set 1445815_PM_at) differential expression (7 hr): −1.81
- G6pdx (probe set 1448354_PM_at) differential expression (7 hr): 1.61
- Irak3 (probe set 1435040_PM_at) differential expression (7 hr): 1.53
- Marco (probe set 1449498_PM_at) differential expression (7 hr): 2.44
- Nqo1 (probe set 1423627_PM_at) differential expression (7 hr): 2.20
- Pir (probe set 1429001_PM_at) differential expression (7 hr): 1.50
- Srxn1 (probe set 1419942_PM_at) differential expression (7 hr): 1.52
- Ablim1 (probe set 1453103_PM_at) differential expression (12 hr): −1.51
- Atp6v0d2 (probe set 1444176_PM_at) differential expression (12 hr): 1.84
- Car3 (probe set 1460256_PM_at) differential expression (12 hr): −1.57
- Ccnf (probe set 1443807_PM_x_at) differential expression (12 hr): 1.57
- Clmn (probe set 1439117_PM_at) differential expression (12 hr): −1.54
- Ctla2a (probe set 1448471_PM_a_at) differential expression (12 hr): 1.63
- Dnajc12 (probe set 1417441_PM_at) differential expression (12 hr): 2.53
- Fndc3b (probe set 1433833_PM_at) differential expression (12 hr): 1.66
- Gadd45b (probe set 1450971_PM_at) differential expression (12 hr): 1.50
- Gm3579 (probe set 1431214_PM_at) differential expression (12 hr): 2.74
- Hyou1 (probe set 1423290_PM_at) differential expression (12 hr): 1.82
- Lrrc59 (probe set 1416235_PM_at) differential expression (12 hr): 1.65
- Nme6 (probe set 1448574_PM_at) differential expression (12 hr): 1.57
- Ppapdc1b (probe set 1428154_PM_s_at) differential expression (12 hr): 1.87
- Ppm1k (probe set 1441988_PM_at) differential expression (12 hr): −1.56
- Prtn3 (probe set 1419669_PM_at) differential expression (12 hr): 4.46
